The subject of test [1] is human colon cancer cell line HT29. Put plainly: CNT (remaining viable cell rate) with doxorubicin, 2D cultures vs 3D cell structures (Example 2). The class given is cell-based. The following applies: doxorubicin 10 μM; for CNT (%) Average value: 72 hours. The text has this: The anti-cancer drug to be assessed was doxorubicin (product number: 046-21523, produced by Wako Pure Chemical Industries, Ltd.).
After termination of the culture, cell structures in which a cancer cell layer was laminated on a layer having a vascular network structure were obtained.
Moreover, for comparison, in place of the above cell structures, structures were constructed by culturing cancer cells so as to form a single layer in a general culture container (2D method), and the resulting 2D cultures were similarly cultured in the presence of doxorubicin. A vascular network was not formed in the obtained 2D cultures even when cancer cells and vascular endothelial cells were made to coexist.
Next, a suitable amount of tris buffer solution (50 mM, pH: 7.4) was added to the Transwell cell culture insert, and the liquid component was then removed. This series of processes was repeated 3 times. […] Thereafter, all of the solution was collected, and transferred to a 1.5-mL collection tube to which 300 μL of 0.25% trypsin-EDTA solution (produced by Invitrogen) had been previously added. […] Thereafter, all of the solution was collected, and transferred to a 1.5-mL collection tube.

For test [2], the system named is HT29. The test can be described thus: CNT with doxorubicin, cell structures with or without semipermeable membrane (Example 9). The class given is cell-based, human. Particulars: doxorubicin 10 μM, 72 hours. The text has this: The cell structures containing a cell layer containing cancer cells and a cell layer having a vascular network structure used herein were cell structures containing a cell layer in which two types of cells, i.e., NHDF and HUVEC, constituted a multilayer, and a cancer cell layer formed from HT29.
Separately, 2×10^4 HT29 was suspended in a suitable amount of culture medium to prepare a cancer cell suspension (step (a)). The HT29 used was previously fluorescently labeled (product number: PKH67GL, produced by SIGMA).
A cell structure 2 was obtained in the same manner as in the cell structure 1, except that a semipermeable membrane with a pore size of 0.4 μm was placed on a structure containing stromal cells, and a cancer cell suspension was seeded on the semipermeable membrane to form a cancer cell layer. […] In the cell structure 2, the cells constituting the cancer cell layer were completely separated from the cells constituting the stromal cell layer.
A cell structure 3 was obtained in the same manner as in the cell structure 1, except that a cancer cell suspension was first seeded in a Transwell cell culture insert to form a cancer cell layer, a semipermeable membrane with a pore size of 0.4 μm was placed on the cancer cell layer, and a stromal cell suspension was then seeded on the semipermeable membrane to form a stromal cell layer. […] In the cell structure 3, the cells constituting the cancer cell layer were completely separated from the cells constituting the stromal cell layer.
A cell structure 4 was obtained in the same manner as in the cell structure 2, except that a semipermeable membrane with a pore size of 8 μm was used. […] In the cell structure 4, the cells constituting the cancer cell layer and the cells constituting the stromal cell layer extended to be in contact with each other in the penetration part of the semipermeable membrane.
A cell structure 5 was obtained in the same manner as in the cell structure 3, except that a semipermeable membrane with a pore size of 8 μm was used. […] In the cell structure 5, the cells constituting the cancer cell layer and the cells constituting the stromal cell layer extended to be in contact with each other in the penetration part of the semipermeable membrane.

The test system of test [3] is HT29. Put plainly: CNT with doxorubicin, vascular network in layer shape vs scattered (Example 3). Particulars: doxorubicin 10 μM, 72 hours. The test is classed as cell-based, human.
For test [4], the system named is breast cancer cell line MCF-7. Put plainly: CNT with doxorubicin, 2D vs 3D (Example 14). The class given is cell-based, human. The following applies: for CNT (%) Average value: 72 hours. The text has this: The general cytotoxic anti-cancer drug to be assessed was doxorubicin (product number: 046-21523, produced by Wako Pure Chemical Industries, Ltd.).
For test [5], the system named is gastric cancer cell line NCI-N87. The test can be described thus: CNT with oxaliplatin, 2D vs 3D (Example 13). Particulars: for CNT (%): 72 hours, measured once. The test is classed as cell-based, human. On the procedure: (§1) Measurements were performed once for each culture condition.
Test [6] deals with HCT116. Particulars: bevacizumab 2 μg per well in the combination, 72 hours.
From the text: (§2) The cell structures containing cancer cells and having a vascular network structure used herein were the cell structures produced in Example 5, and the cell culture container, culture media, and bevacizumab used herein were also the same as those used in Example 5.
(§3) After the cell structures were each dispersed in the same manner as in Example 2, and the obtained dispersions were stained with trypan blue, the number of viable cancer cells was counted to calculate CNT (%).
Test [7] concerns lung cancer cell line NCI-H820. The test can be described thus: CNT with oxaliplatin, 2D vs 3D (Example 12). The test is classed as cell-based, human. The following applies: for CNT (%): 72 hours, measured once. On the procedure: as §1
The test system of test [8] is HT29. The following applies: oxaliplatin 100 μg/mL, bevacizumab 2 μg per well in combined use.
Method: (§4) Furthermore, HT29 cells were used as the cancer cells.
Cell structures were produced in the same manner as in Example 5, except that HT29 cells were seeded in a Transwell cell culture insert in which a structure formed from NHDF and HUVEC was formed, centrifugation was performed to remove the liquid component, and the culture time in the CO2 incubator (37° C., 5% CO2) was changed to 24, 48, 72, or 96 hours.
(§5) After the cell structures were each dispersed in the same manner as in Example 2, and the obtained dispersions were stained with trypan blue, the number of viable cancer cells was counted to calculate CNT (%). Measurements were repeated three times for each culture condition.
Test [9] concerns HT29. The following applies: bevacizumab 2 μg per well in the combination, 72 hours.
From the text: as §2, §3
Test [10] relates to HT29. The following applies: oxaliplatin 100 μg/mL, bevacizumab 2 μg per well in combined use, 72 hours.
From the text: as §4, §5
Test [11] concerns HT29. Put plainly: CNT with cetuximab and/or bevacizumab, 2D, spheroid, 3D (Example 4). The test is classed as cell-based, human. The following applies: for CNT (%) Average value / CNT (%) Median value: cetuximab 1 mg/mL and/or bevacizumab 2 μg per well, 72 hours. The text has this: Moreover, for comparison, in place of the above cell structures, structures were produced by culturing cancer cells so as to form a single layer in a general culture container (2D method), and spheroids were produced by spheroid culture of a mixture of 2×10^6 NHDF, 3×10^4 HUVEC, and 2×10^4 HT29 (spheroid method).

The mark [12] stands for this setting: regardless of the oxaliplatin concentration.
[13] abbreviates: Spheroid, oxaliplatin 100 μg/mL.

Like-named read-outs stand apart in the source and are kept apart here.

Consider `COc1cccc2c1C(=O)c1c(O)c3c(c(O)c1C2=O)C[C@@](O)(C(=O)CO)C[C@@H]3O[C@H]1C[C@H](N)[C@H](O)[C@H](C)O1` [Doxorubicin, doxorubicin], for which the “CNT (%) Average value” in [1] (2D, HT29 2 × 10^4 only) was 6.87%; in test [1] (2D, HUVEC 2 × 10^4 + HT29 2 × 10^4), 21.40%; in test [1] (2D, NHDF 2 × 10^4 + HT29 2 × 10^4) it was 13.20%; in test [1] (3D, NHDF 1 × 10^6 + HUVEC 3 × 10^4 + HT29 2 × 10^4) it was 28.22%; in [1] (3D, NHDF 2 × 10^6 + HT29 2 × 10^4, no vascular network), 29.77%; in test [1] (3D, NHDF 2 × 10^6 + HUVEC 3 × 10^4 + HT29 2 × 10^4) it was 31.22%. Moreover, the “CNT (%) Average value” in [2] (Cell structure 1 (stromal cell layer - cancer cell layer)) turned out to be 31.22%; in test [2] (Cell structure 2 (stromal cell layer - semipermeable membrane (0.4 μm) - cancer cell layer)) it was 30.83%; in [2] (Cell structure 3 (cancer cell layer - semipermeable membrane (0.4 μm) - stromal cell layer)) it was 32.68%; in [2] (Cell structure 4 (stromal cell layer - semipermeable membrane (8 μm) - cancer cell layer)), 31.47%; in [2] (Cell structure 5 (cancer cell layer - semipermeable membrane (8 μm) - stromal cell layer)) it was 33.03%; in [3] (cell structure in which a vascular network structure is formed in a layer shape), 31.22%. Also, the “CNT (%) Average value” is reported as 31.06% in test [3] (cell structure in which a vascular network structure is scattered in the entire structure); 38.9% in test [4] (2D, Doxorubicin 1 μM); 12.1% in test [4] (2D, Doxorubicin 10 μM); 78.4% in [4] (3D, Doxorubicin 1 μM); 48.9% in [4] (3D, Doxorubicin 10 μM). Also, the “effectiveness in 2D culture co-cultured with fibroblasts relative to 2D culture co-cultured with vascular endothelial cells” value in test [1] (2D) was “about two”. Moreover, the “CNT of the cell structures relative to 2D culture” value in test [1] (3D cell structures vs 2D culture of only cancer cells and 2D culture of cancer cells and fibroblasts) is on record as “at least 5 times”. Moreover, the “drug sensitivity, cell structures compared with 2D cultures” value in [4] (regardless of the doxorubicin concentration) was “drug sensitivity was lower”.

Regarding `O=C1[O][Pt]2([NH][C@@H]3CCCC[C@H]3[NH]2)[O]C1=O` [Oxaliplatin, oxaliplatin], the “CNT (%)” value in [5] (2D, oxaliplatin 10 μg/mL) is on record as 22.0%; in test [5] (2D, oxaliplatin 100 μg/mL), 10.3%; in test [5] (3D, oxaliplatin 10 μg/mL), 45.9%; in [5] (3D, oxaliplatin 100 μg/mL), 17.7%; in test [7] (2D, oxaliplatin 1 μg/mL) it was 62.9%; in test [7] (2D, oxaliplatin 10 μg/mL), 21.0%. For the same molecule, the “CNT (%)” value in test [7] (3D, oxaliplatin 1 μg/mL) is 78.2%; in test [7] (3D, oxaliplatin 10 μg/mL) it was 66.7%. The “drug sensitivity, cell structures compared with 2D cultures” value in test [5] (setting [12]) and in [7] (setting [12]) was “drug sensitivity was lower” throughout. In addition, the “CNT (%) Average value” in test [6] (2D, oxaliplatin 10 μg/mL) is reported as 23.8%; in [6] (2D, oxaliplatin 100 μg/mL), 11.3%; in test [6] (3D, oxaliplatin 10 μg/mL), 54.1%; in test [6] (3D, oxaliplatin 100 μg/mL), 35.6%; in test [6] (Spheroid, oxaliplatin 10 μg/mL) it was 51.8%; in test [6] (setting [13]), 18.8%. The “CNT (%) Average value” is reported as 36.0% in [8] (culture time 24 h after lamination of cancer cell layer, 72 hours); 36.3% in test [8] (culture time 48 h after lamination of cancer cell layer, 72 hours); 37.0% in test [8] (culture time 72 h after lamination of cancer cell layer); 33.8% in [8] (culture time 96 h after lamination of cancer cell layer, 72 hours); 39.4% in test [9] (2D, oxaliplatin 10 μg/mL); 16.0% in [9] (2D, oxaliplatin 100 μg/mL). Moreover, the “CNT (%) Average value” in test [9] (3D, oxaliplatin 10 μg/mL) was 63.6%; in [9] (3D, oxaliplatin 100 μg/mL), 31.9%; in test [9] (Spheroid, oxaliplatin 10 μg/mL), 48.2%; in [9] (setting [13]) it was 22.3%; in test [10] (HUVEC content 0.05 %, vascular network not formed), 30.3%; in test [10] (HUVEC content 0.25 %, vascular network formed), 33.4%. For the same molecule, the “CNT (%) Average value” in test [10] (HUVEC content 0.5 %, vascular network formed) is 35.7%; in [10] (HUVEC content 1.5 %, vascular network formed), 33.8%.

In the case of bevacizumab, the CNT entry is given as “about 100%” in test [11] (2D cultures and spheroids); “about 100%” in test [11] (cell structures of the present Example, 3D). Also, the “CNT (%) Average value” in test [11] (2D) is listed as 93.9%; in test [11] (3D), 105.2%; in test [11] (Spheroid), 108.6%. Further, the “CNT (%) Median value” in [11] (2D) was 99.3%; in [11] (3D) it was 112.7%; in test [11] (Spheroid), 113.8%.

These data come from patent US11249070B2, “Anti-cancer drug assessment method” (TOPPAN PRINTING CO., LTD., priority 2016, dated 2022).
